Patent publication US10487058B2, “Cyclopropyl unsaturated quinoline compound used as leukotriene receptor antagonist and applications thereof” (Guangdong Moltech Pharma Co. Ltd, priority 2015, dated 2019)

How the values were obtained:
guinea pig asthma models = experiment: Anti-asthmatic effect of CS-0090-1 on guinea pig asthma models (histamine/acetylcholine atomization); format: in vivo
[1] = tested on: histamine and acetylcholine induced asthma guinea pigs; experiment: Anti-asthmatic effect of CS-0090-2 on histamine and acetylcholine induced asthma guinea pigs; format: in vivo, guinea pig
[2] = tested on: histamine and acetylcholine induced asthma guinea pigs; experiment: Anti-asthmatic effect of CS-0090-4 on histamine and acetylcholine induced asthma guinea pigs; format: in vivo, guinea pig
Experimental: 0.2 g choline and 0.01 g histamine were weighed and put into beakers respectively, and then respectively each beaker were added with 10 ml distilled water and blended to homogeneity.
The healthy guinea pigs with body weight of 180 to 220 g were taken and placed in a closed glass bell jar one by one firstly; after the guinea pigs became quiet, an atomization apparatus was started to spray an asthma-induced medical liquid (a solution of 2% acetylcholine chloride and 0.1% histamine phosphate mixed in equal volume) until the guinea pigs tumbled, then the pulverization was stopped, and the asthma latent period (time period from the beginning of pulverization to onset of asthma and dyspnea, till convulsions and tumble) was observed, and qualified animals having a asthma latent period ≤120 s were screened.
The qualified guinea pigs screened were randomly divided into four groups, which were a high-dosage group, a median-dosage group, a low-dosage group, and a positive control group. The guinea pigs in each group were subjected to oral gavage administration continuously for 7 days with a dosage of 1 ml/100 g. The induced asthma latent period was determined in 1 h after administration on the last day.

KM mice = conditions: oral gavage three times in one day, observed 7 days
[3] = 3 mg·kg^−1 group, self-control baseline

CC(C)(O)c1ccccc1CC[C@@H](SCC1(CC(=O)O)CC1)c1cccc(/C=C/c2ccc3ccc(Cl)cc3n2)c1 [Montelukast]
Induced asthma latent period before administration (guinea pig asthma models; [3]): 48.17 ± 4.62 s
Induced asthma latent period after administration (guinea pig asthma models; 3 mg·kg^−1 oral gavage once a day for 7 days, 1 h after last dose, capped at 6 min): 63.00 ± 7.13 s
Induced asthma latent period (s) within 6 min Before administration [1, 3]: 48.2 ± 4.6 s
Induced asthma latent period (s) within 6 min After administration ([1]; 3 mg·kg^−1 oral gavage 7 days, 1 h after last dose, capped at 360 s): 59.8 ± 7.1 s
Asthma latent period before administration [2, 3]: 48.17 ± 4.62
Asthma latent period after administration ([2]; 3 mg·kg^−1 oral gavage 7 days, 1 h after last dose): 59.83 ± 7.08
maximum dosage (KM mice): 2280 mg/kg
